Experimental data: patent US20220249441A1, “Homodimeric Tobramycin Adjuvant Repurposes Novobiocin as an Effective Antibacterial Agent Against Gram-Negative Bacteria” (priority 2019, published 2022)

How the values were obtained:
P. aeruginosa = assay: Checkerboard assay (antibiotic + adjuvant combination MIC); assay type: cell-based, Pseudomonas aeruginosa; settings: compound at 8 μM
Description: (§1) Antimicrobial Susceptibility Assay. The in vitro antimicrobial activity of all compounds/antibiotics against a panel of bacteria was evaluated by microbroth dilution method in accordance with the Clinical and Laboratory Standards Institute (CLSI) guidelines (using ATCC strains as quality control strains) (54). Overnight grown bacterial cultures were diluted in saline to achieve a 0.5 McFarland turbidity, followed by 1:50 dilution in Mueller-Hinton broth (MHB) for inoculation to a final concentration of approximately 5×10^5 CFU/mL. […] The lowest concentration that prevented the visible growth of bacteria was defined as the MIC for each antimicrobial agent. The broth with or without bacterial cells was used as positive or negative control, respectively.
Checkerboard Assay. Combination studies with different antibiotics were performed in 96-well plates as previously described (19). Briefly, the antibiotic of interest was serially diluted in MHB along the abscissa while the adjuvant (tobramycin homodimer) was serially diluted in MHB along the ordinate. This creates a 10×7 matrices wherein each well consists of a combination of different antibiotic and adjuvant concentrations. Overnight grown bacterial cultures were diluted in saline to achieve a 0.5 McFarland turbidity, followed by 1:50 dilution in Mueller-Hinton broth (MHB) for inoculation to a final concentration of approximately 5×10^5 CFU/mL. […] MIC was recorded as wells with the lowest concentration of drugs with no bacterial growth. The fractional inhibitory concentration (FIC) for each antibiotic was calculated by dividing the MIC of the antibiotic in the presence of adjuvant by the MIC of the antibiotic alone. Similarly, the FIC of adjuvant was calculated by dividing the MIC of the adjuvant in the presence of antibiotic by the MIC of the adjuvant alone. FIC index is the sum of both FICs. FIC indices of ≤0.5 were deemed synergistic; >0.5-4, no interaction; and >4, antagonistic.

[1] = tested on: P. aeruginosa PAO1 and efflux deficient mutants, MDR/XDR isolates; assay: microbe, parasite or virus in culture; assay type: cell-based, Pseudomonas aeruginosa
Description: Antimicrobial Susceptibility Assay. The in vitro antimicrobial activity of all compounds/antibiotics against a panel of bacteria was evaluated by microbroth dilution method in accordance with the Clinical and Laboratory Standards Institute (CLSI) guidelines (using ATCC strains as quality control strains) (54). […] The broth with or without bacterial cells was used as positive or negative control, respectively.

[2] = tested on: panel of Gram-positive and Gram-negative bacteria; assay: Antimicrobial susceptibility assay against a panel of bacteria; assay type: cell-based; settings: some isolates
Description: as §1

## Cl.Cl.Cl.Cl.Cl.Cl.NC[C@H]1O[C@H](O[C@H]2[C@H](OCCCCCCCCCCCCN3CCN(c4cc5c(cc4F)c(=O)c(C(=O)O)cn5C4CC4)CC3)[C@@H](O[C@H]3O[C@H](CO)[C@@H](O)[C@H](N)[C@H]3O)[C@H](N)C[C@@H]2N)[C@H](N)C[C@@H]1O [Compound 21, Tobramycin-ciprofloxacin]
P. aeruginosa; P. aeruginosa PAO1
  MIC of Aztreonam + compound: 0.25 µg/mL
  MIC of Ceftazidime + compound: 0.25 µg/mL
  MIC of Imipenem + compound: 0.5 µg/mL
  MIC of Piperacillin + compound: 2 µg/mL
P. aeruginosa; PA 259-96918
  MIC of ATM in the presence of compound: 8 µg/mL
  MIC of CAZ in the presence of compound: 64 µg/mL
  MIC of IPM in the presence of compound: 16 µg/mL
P. aeruginosa; PA 260-97103
  MIC of ATM in the presence of compound: 4 µg/mL
  MIC of CAZ in the presence of compound: 4 µg/mL
  MIC of IPM in the presence of compound: 2 µg/mL
P. aeruginosa; PA 262-101856
  MIC of ATM in the presence of compound: 4 µg/mL
  MIC of CAZ in the presence of compound: 4 µg/mL
  MIC of IPM in the presence of compound: 4 µg/mL
P. aeruginosa; PA 264-104354
  MIC of ATM in the presence of compound: 8 µg/mL
  MIC of CAZ in the presence of compound: 16 µg/mL
  MIC of IPM in the presence of compound: 4 µg/mL
P. aeruginosa; PA 86052
  MIC of ATM in the presence of compound: 8 µg/mL
  MIC of CAZ in the presence of compound: 32 µg/mL
  MIC of IPM in the presence of compound: 8 µg/mL
P. aeruginosa; PA 88949
  MIC of ATM in the presence of compound: 8 µg/mL
  MIC of CAZ in the presence of compound: 32 µg/mL
  MIC of IPM in the presence of compound: 8 µg/mL
P. aeruginosa; PA 91433
  MIC of ATM in the presence of compound: 4 µg/mL
  MIC of CAZ in the presence of compound: 2 µg/mL
  MIC of IPM in the presence of compound: 2 µg/mL
P. aeruginosa; PA 100036
  MIC of ATM in the presence of compound: 4 µg/mL
  MIC of CAZ in the presence of compound: 2 µg/mL
  MIC of IPM in the presence of compound: 2 µg/mL
P. aeruginosa; PA 101243
  MIC of ATM in the presence of compound: 4 µg/mL
  MIC of CAZ in the presence of compound: 8 µg/mL
  MIC of IPM in the presence of compound: 2 µg/mL
P. aeruginosa; PA 101885
  MIC of ATM in the presence of compound: 1 µg/mL
  MIC of CAZ in the presence of compound: 1 µg/mL
  MIC of IPM in the presence of compound: 2 µg/mL
P. aeruginosa; PA 107092
  MIC of ATM in the presence of compound: 8 µg/mL
  MIC of CAZ in the presence of compound: 16 µg/mL
  MIC of IPM in the presence of compound: 8 µg/mL
P. aeruginosa; PA 108590
  MIC of ATM in the presence of compound: 0.5 µg/mL
  MIC of CAZ in the presence of compound: 0.5 µg/mL
  MIC of IPM in the presence of compound: 0.25 µg/mL
P. aeruginosa; PA 109084
  MIC of ATM in the presence of compound: 16 µg/mL
  MIC of CAZ in the presence of compound: 16 µg/mL
  MIC of IPM in the presence of compound: 8 µg/mL
P. aeruginosa; PA 114228
  MIC of ATM in the presence of compound: 2 µg/mL
  MIC of CAZ in the presence of compound: 0.5 µg/mL
  MIC of IPM in the presence of compound: 2 µg/mL
P. aeruginosa; PA O200 (efflux-deficient)
  MIC of ATM in the presence of compound: 0.03 µg/mL
  MIC of CAZ in the presence of compound: 0.06 µg/mL
  MIC of IPM in the presence of compound: 1 µg/mL
P. aeruginosa; PA O750 (efflux-deficient)
  MIC of ATM in the presence of compound: 0.06 µg/mL
  MIC of CAZ in the presence of compound: 0.03 µg/mL
  MIC of IPM in the presence of compound: 0.5 µg/mL
P. aeruginosa; PAO1
  MIC of ATM in the presence of compound: 0.25 µg/mL
  MIC of CAZ in the presence of compound: 0.25 µg/mL
  MIC of IPM in the presence of compound: 0.5 µg/mL
P. aeruginosa
  resistant isolates in which CLSI breakpoint was attained for aztreonam: twelve out of thirteen
  resistant isolates in which CLSI breakpoint was attained for ceftazidime: four out of eleven
  resistant isolates in which CLSI breakpoint was attained for imipenem: ten out of seventeen
[1]; PA0750 (efflux-deficient)
  MIC: 2 µg/mL
[1]; PAO1 (wild-type)
  MIC: 32 µg/mL
[1]; PAO200 (first column so headed)
  MIC: 4 µg/mL
[1]; PAO200 (second column so headed)
  MIC: 2 µg/mL
[2]
  intrinsic antimicrobial activity: some modest residual activity
